Tests used:
[1] = system: Vero E6 cells; settings: African green monkey
[2] = in vitro; settings: African green monkey

| SMILES | CC50 [1] [µM] | CC50 [2] [µM] |
| --- | --- | --- |
| O=c1[nH]cnc2c([C@@H]3N[C@H](CO)[C@@H](O)[C@H]3O)c[nH]c12 [Forodesine, forodesine] | > 100 |  |
| CCC(CC)COC(=O)[C@H](C)N[P@](=O)(OC[C@H]1O[C@@](C#N)(c2ccc3c(N)ncnn23)[C@H](O)[C@@H]1O)Oc1ccccc1 [Remdesivir, remdesivir] |  | > 100 |
| CC(C)=CCNc1ncnc2c1ncn2[C@@H]1O[C@H](CO)[C@@H](O)[C@H]1O [Riboprine, N^6-(2-Isopentenyl)adenosine] | > 100 |  |
| CC(C)Nc1nc2cc(Cl)c(Cl)cc2n1[C@H]1O[C@@H](CO)[C@H](O)[C@@H]1O [Maribavir, maribavir] | > 100 |  |
| OC[C@H]1O[C@@H](n2cnc3c(N[C@@H]4CCOC4)ncnc32)[C@H](O)[C@@H]1O [Tecadenoson, tecadenoson] | > 100 |  |
| CC(C)C(=O)OC[C@H]1O[C@@H](n2ccc(NO)nc2=O)[C@H](O)[C@@H]1O [Molnupiravir, molnupiravir] | > 100 |  |
| Nc1ncnc2c1ncn2[C@@H]1O[C@H](CO)[C@@H](O)[C@@H]1O [Vidarabine, Arabinosyladenine] | > 100 |  |
| COc1nc(N)nc2c1ncn2[C@@H]1O[C@H](CO)[C@@H](O)[C@@H]1O [Nelarabine, nelarabine] | > 100 |  |

From article PMC9797896 (Medicinal Chemistry Research, 2022)
